The values that follow come from CN110478361A, “一种安全性高的灯盏花乙素药物组合物及其制备方法” (KUNMING LONGJIN PHARMACEUTICAL CO Ltd, priority 2018, dated 2019).

As a reminder, the NOAEL is the highest dose or exposure tested at which no adverse effect was seen.

For data set [1], the system named is rat dementia caused by kainic acid (海人藻酸所致大鼠痴呆). Conditions: male Wistar rats; cited from earlier work.
Data set [2] concerns rat dementia caused by β-amyloid (β-淀粉样蛋白致大鼠痴呆). The conditions noted are these: male Wistar rats; cited from earlier work.
The test system of data set [3] is reflux oesophagitis and gastritis (反流性食道炎以及抗胃炎). The conditions noted are these: cited from earlier work.
Data set [4] concerns Beagle dogs (Beagle犬). Put plainly: Single-dose intravenous toxicity in Beagle dogs. The conditions noted are these: worked out from dog single i.v. MTD. The class given is in vivo, dog.
A short description of data set [5]: Single-dose intravenous toxicity in Beagle dogs. The data set is classed as in vivo, dog. The conditions noted are these: in vivo, iv; Beagle dog, single i.v., injectable breviscapine made from Example 1; 200, 400 mg/kg; 14 days observation; read-out: maximum tolerated dose (MTD).
Data set [6] in a line: Clarity test (compared with yellow-green No. 6 standard colour solution, Chinese Pharmacopoeia 2015, general chapter 0901, method 1). The class given is physicochemical. The conditions noted are these: 0.02 mg per mL in 1% sodium hydrogencarbonate solution, inspected within 5 minutes.
Data set [7] relates to Beagle dogs (Beagle犬). Put plainly: Repeated-dose intravenous toxicity in Beagle dogs, four weeks with four-week recovery. The conditions noted are these: worked out from dog 28-day i.v. NOAEL. The class given is in vivo, dog.
Experiment in data set [8]: as above
The data set is classed as in vivo, dog. Conditions: in vivo, iv; Beagle dog, i.v. once daily, 28 days, recovery 28 days; 25, 50, 100 mg/kg; injectable breviscapine made from Example 1; read-out: no observed adverse effect level (NOAEL).

Data set [9] is described as follows: Repeated-dose intravenous toxicity in SD rats, four weeks with four-week recovery. The data set is classed as in vivo, rat. The conditions noted are these: in vivo, iv; SD rat, i.v. once daily, 28 days, recovery 29 days; 200, 400, 600 mg/kg; injectable breviscapine made from Example 1; read-out: no observed adverse effect level (NOAEL).
Data set [10] deals with SD rats (SD大鼠). The description is as above. The data set is classed as in vivo, rat. Conditions: worked out from rat 28-day i.v. NOAEL.
Data set [11] is described as follows: Single-dose intravenous toxicity in SD rats. The data set is classed as in vivo, rat. Conditions: in vivo, iv; SD rat, single i.v., injectable breviscapine made from Example 1; 500, 750, 1000 mg/kg; 14 days observation; read-out: maximum tolerated dose (MTD).
For data set [12], the system named is SD rats (SD大鼠). Put plainly: Single-dose intravenous toxicity in SD rats. The class given is in vivo, rat. Conditions: worked out from rat single i.v. MTD.
The nature of data set [13]: Single-dose oral gavage toxicity in SD rats. The data set is classed as in vivo, rat. Conditions: in vivo; SD rat, single oral gavage, 5000 mg/kg; 14 days observation; read-out: maximum administered dose.
Data set [14] concerns SD rats (SD大鼠). Put plainly: Single-dose oral gavage toxicity in SD rats. The class given is in vivo, rat. Conditions: worked out from rat single oral dose.
For data set [15] the following is noted: in air; cited from earlier work.
The conditions of data set [16]: aglycone and active metabolite of scutellarin, compared with scutellarin; cited from earlier work.
The mark [17] stands for this setting: compared with apigenin and omeprazole.

In the case of `O=C(O)[C@H]1O[C@@H](Oc2cc(O)c3c(=O)cc(-c4ccc(O)cc4)oc3c2)[C@H](O)[C@@H](O)[C@@H]1O` [5,4’-二羟基黄酮-7-O-β-D-葡萄糖醛酸], in [1], the “effect on pathological changes of brain tissue” value is “有一定改善作用”. Besides, in data set [2], the “effect on pathological damage of cerebral cortex and hippocampus” value is listed as “可减轻β-淀粉样蛋白所致大鼠脑皮层及海马的病理损害”; the “therapeutic effect on dementia” value is “有一定的治疗作用”. In data set [3] (setting [17]), the “anti-reflux-oesophagitis and anti-gastritis effect” value is reported as “比芹菜素和奥美拉唑更有效”; the “reduction of the extent of gastric lesions” value was “比芹菜素和奥美拉唑更能有效的减小胃损伤范围”. For the same compound, in data set [3] (mouse, in vivo), the “MOA content produced by induced reflux oesophagitis” value is reported as “减少由诱导反流性食管炎而产生的MOA的含量”, the antioxidant activity result is “有抗氧化活性” and the “glutathione (GSH) produced in acute oesophagitis” value is reported as “清除急性食管炎产生的谷胱甘肽(GSH)”.
Consider `O=C(O)[C@H]1O[C@@H](Oc2cc3oc(-c4ccc(O)cc4)cc(=O)c3c(O)c2O)[C@H](O)[C@@H](O)[C@@H]1O` [实施例1], for which the “equivalent human daily intake of the MTD” value in the data set on Beagle dogs (Beagle犬) [4] is 6666 mg; in the data set with SD rats (SD大鼠) [12], 7500 mg. Also, the MTD at 336 h in data set [5] was 200 mg/kg; in data set [11], 750 mg/kg. Further, the clarity test conclusion result in data set [6] was “符合规定”. In addition, the figures for the “equivalent human daily intake of the NOAEL” value in the data set with Beagle dogs (Beagle犬) [7] and in the data set on SD rats (SD大鼠) [10] were 833.3 mg and 2000 mg, respectively. The NOAEL at 672 h worked out at 25 mg/kg in data set [8] and 200 mg/kg in data set [9].
As to `O=C(O)[C@H]1O[C@@H](Oc2cc3oc(-c4ccc(O)cc4)cc(=O)c3c(O)c2O)[C@H](O)[C@@H](O)[C@@H]1O` [实施例2], the MTD at 336 h in [13] was 5000 mg/kg. In addition, the “equivalent human daily intake of the maximum administered dose” value with SD rats (SD大鼠) [14] is reported as 50 g.
`O=c1cc(-c2ccc(O)cc2)oc2cc(O)c(O)c(O)c12` [野黄芩素]: the stability result in [15] is recorded as “在空气中易氧化变为醌类衍生物”. In addition, the related biological activity entry in [16] is listed as “更强相关生物活性”.
